Assay results as given in patent US20030045563A1, “Pharmaceutical composition having reduced tendency for drug crystallization” (priority 2001, published 2003).

Assay: Test I: turbidity (apparent absorbance at 650 nm) of drug solutions with or without test polymer
Conditions: pH 7 phosphate buffer
[1] = drug 31.3 μg/ml, Dextran 65,000 0.5% w/w
[2] = drug 31.3 μg/ml, Ethylcellulose A15 0.5% w/w
[3] = drug 31.3 μg/ml, Glycerin (non-polymer) 0.5% w/w
[4] = drug 31.3 μg/ml, HPC 80,000 0.5% w/w
[5] = drug 31.3 μg/ml, HPMC E15 0.5% w/w
[6] = drug 31.3 μg/ml, Na CMC 250,000 0.5% w/w
[7] = drug 31.3 μg/ml, PEG 8,000 0.5% w/w
[8] = drug 31.3 μg/ml, PEG 20,000 0.5% w/w
[9] = drug 31.3 μg/ml, PVP 10,000 0.5% w/w
[10] = drug 31.3 μg/ml, PVP 29,000 0.5% w/w
[11] = drug 31.3 μg/ml, PVP 55,000 0.5% w/w
[12] = drug 62.5 μg/ml, Dextran 65,000 0.5% w/w
[13] = drug 62.5 μg/ml, Ethylcellulose A15 0.5% w/w
[14] = drug 62.5 μg/ml, Glycerin (non-polymer) 0.5% w/w
[15] = drug 62.5 μg/ml, HPC 80,000 0.5% w/w
[16] = drug 62.5 μg/ml, HPMC E15 0.5% w/w
[17] = drug 62.5 μg/ml, Na CMC 250,000 0.5% w/w
[18] = drug 62.5 μg/ml, PEG 8,000 0.5% w/w
[19] = drug 62.5 μg/ml, PEG 20,000 0.5% w/w
[20] = drug 62.5 μg/ml, PVP 10,000 0.5% w/w
[21] = drug 62.5 μg/ml, PVP 29,000 0.5% w/w
[22] = drug 62.5 μg/ml, PVP 55,000 0.5% w/w
[23] = drug 125 μg/ml, Dextran 65,000 0.5% w/w
[24] = drug 125 μg/ml, Ethylcellulose A15 0.5% w/w
[25] = drug 125 μg/ml, Glycerin (non-polymer) 0.5% w/w
[26] = drug 125 μg/ml, HPC 80,000 0.5% w/w
[27] = drug 125 μg/ml, HPMC E15 0.5% w/w
[28] = drug 125 μg/ml, Na CMC 250,000 0.5% w/w
[29] = drug 125 μg/ml, PEG 8,000 0.5% w/w
[30] = drug 125 μg/ml, PEG 20,000 0.5% w/w
[31] = drug 125 μg/ml, PVP 10,000 0.5% w/w
[32] = drug 125 μg/ml, PVP 29,000 0.5% w/w
[33] = drug 125 μg/ml, PVP 55,000 0.5% w/w
[34] = drug 250 μg/ml, Dextran 65,000 0.5% w/w
[35] = drug 250 μg/ml, Ethylcellulose A15 0.5% w/w
[36] = drug 250 μg/ml, Glycerin (non-polymer) 0.5% w/w
[37] = drug 250 μg/ml, HPC 80,000 0.5% w/w
[38] = drug 250 μg/ml, HPMC E15 0.5% w/w
[39] = drug 250 μg/ml, Na CMC 250,000 0.5% w/w
[40] = drug 250 μg/ml, PEG 8,000 0.5% w/w
[41] = drug 250 μg/ml, PEG 20,000 0.5% w/w
[42] = drug 250 μg/ml, PVP 10,000 0.5% w/w
[43] = drug 250 μg/ml, PVP 29,000 0.5% w/w
[44] = drug 250 μg/ml, PVP 55,000 0.5% w/w

Structure (SMILES): Cc1ccc(-c2cc(C(F)(F)F)nn2-c2ccc(S(N)(=O)=O)cc2)cc1 [Celecoxib, 4-[5-(4-methylphenyl)-3-(trifluoromethyl)-1H-pyrazol-1-yl]benzenesulfonamide]
- Absorbance [1]: 0.033
- Absorbance [2]: 0.041
- Absorbance [3]: 0.038
- Absorbance [4]: 0.034
- Absorbance [5]: 0.037
- Absorbance [6]: 0.046
- Absorbance [7]: 0.031
- Absorbance [8]: 0.039
- Absorbance [9]: 0.035
- Absorbance [10]: 0.031
- Absorbance [11]: 0.04
- Absorbance (drug 31.3 μg/ml, polymer None): 0.036
- Absorbance [12]: 0.076
- Absorbance [13]: 0.039
- Absorbance [14]: 0.07
- Absorbance [15]: 0.038
- Absorbance [16]: 0.039
- Absorbance [17]: 0.078
- Absorbance [18]: 0.169
- Absorbance [19]: 0.16
- Absorbance [20]: 0.041
- Absorbance [21]: 0.037
- Absorbance [22]: 0.049
- Absorbance (drug 62.5 μg/ml, polymer None): 0.069
- Absorbance [23]: 0.266
- Absorbance [24]: 0.06
- Absorbance (drug 125 μg/ml, Ethylcellulose A15 0.5% w/w, listed as celecoxib): reduced turbidity
- Absorbance [25]: 0.184
- Absorbance [26]: 0.05
- Absorbance (drug 125 μg/ml, HPC 80,000 0.5% w/w, listed as celecoxib): reduced turbidity
- Absorbance [27]: 0.049
- Absorbance (drug 125 μg/ml, HPMC E15 0.5% w/w, listed as celecoxib): reduced turbidity
- Absorbance [28]: 0.083
- Absorbance (drug 125 μg/ml, Na CMC 250,000 0.5% w/w, listed as celecoxib): reduced turbidity
- Absorbance [29]: 0.308
- Absorbance [30]: 0.342
- Absorbance [31]: 0.072
- Absorbance (drug 125 μg/ml, PVP 10,000 0.5% w/w, listed as celecoxib): reduced turbidity
- Absorbance [32]: 0.064
- Absorbance (drug 125 μg/ml, PVP 29,000 0.5% w/w, listed as celecoxib): reduced turbidity
- Absorbance [33]: 0.048
- Absorbance (drug 125 μg/ml, PVP 55,000 0.5% w/w, listed as celecoxib): reduced turbidity
- Absorbance (drug 125 μg/ml, polymer None): 0.146
- Absorbance [34]: 0.379
- Absorbance [35]: 0.085
- Absorbance (drug 250 μg/ml, Ethylcellulose A15 0.5% w/w, listed as celecoxib): reduced turbidity
- Absorbance [36]: 0.41
- Absorbance [37]: 0.11
- Absorbance (drug 250 μg/ml, HPC 80,000 0.5% w/w, listed as celecoxib): reduced turbidity
- Absorbance [38]: 0.093
- Absorbance (drug 250 μg/ml, HPMC E15 0.5% w/w, listed as celecoxib): reduced turbidity
- Absorbance [39]: 0.148
- Absorbance (drug 250 μg/ml, Na CMC 250,000 0.5% w/w, listed as celecoxib): reduced turbidity
- Absorbance [40]: 0.485
- Absorbance [41]: 0.654
- Absorbance [42]: 0.2
- Absorbance (drug 250 μg/ml, PVP 10,000 0.5% w/w, listed as celecoxib): reduced turbidity
- Absorbance [43]: 0.118
- Absorbance (drug 250 μg/ml, PVP 29,000 0.5% w/w, listed as celecoxib): reduced turbidity
- Absorbance [44]: 0.105
- Absorbance (drug 250 μg/ml, PVP 55,000 0.5% w/w, listed as celecoxib): reduced turbidity
- Absorbance (drug 250 μg/ml, polymer None): 0.376

Structure (SMILES): Cc1onc(-c2ccccc2)c1-c1ccc(S(N)(=O)=O)cc1 [Valdecoxib, 4-[5-methyl-3-phenylisoxazol-4-yl]benzenesulfonamide]
- Absorbance [1]: 0.03
- Absorbance [2]: 0.033
- Absorbance [3]: 0.03
- Absorbance [4]: 0.031
- Absorbance [5]: 0.032
- Absorbance [6]: 0.03
- Absorbance [7]: 0.03
- Absorbance [8]: 0.031
- Absorbance [9]: 0.032
- Absorbance [10]: 0.03
- Absorbance [11]: 0.032
- Absorbance (drug 31.3 μg/ml, polymer None): 0.031
- Absorbance [12]: 0.031
- Absorbance [13]: 0.033
- Absorbance [14]: 0.028
- Absorbance [15]: 0.032
- Absorbance [16]: 0.034
- Absorbance [17]: 0.036
- Absorbance [18]: 0.03
- Absorbance [19]: 0.031
- Absorbance [20]: 0.034
- Absorbance [21]: 0.03
- Absorbance [22]: 0.031
- Absorbance (drug 62.5 μg/ml, polymer None): 0.029
- Absorbance [23]: 0.033
- Absorbance [24]: 0.033
- Absorbance [25]: 0.029
- Absorbance [26]: 0.046
- Absorbance [27]: 0.034
- Absorbance [28]: 0.09
- Absorbance [29]: 0.03
- Absorbance [30]: 0.031
- Absorbance [31]: 0.032
- Absorbance [32]: 0.032
- Absorbance [33]: 0.032
- Absorbance (drug 125 μg/ml, polymer None): 0.029
- Absorbance [34]: 0.289
- Absorbance [35]: 0.052
- Absorbance (drug 250 μg/ml, Ethylcellulose A15 0.5% w/w, listed as valdecoxib): reduced turbidity
- Absorbance [36]: 0.229
- Absorbance [37]: 0.093
- Absorbance (drug 250 μg/ml, HPC 80,000 0.5% w/w, listed as valdecoxib): reduced turbidity
- Absorbance [38]: 0.064
- Absorbance (drug 250 μg/ml, HPMC E15 0.5% w/w, listed as valdecoxib): reduced turbidity
- Absorbance [39]: 0.174
- Absorbance (drug 250 μg/ml, Na CMC 250,000 0.5% w/w, listed as valdecoxib): reduced turbidity
- Absorbance [40]: 0.345
- Absorbance [41]: 0.433
- Absorbance [42]: 0.321
- Absorbance [43]: 0.183
- Absorbance (drug 250 μg/ml, PVP 29,000 0.5% w/w, listed as valdecoxib): reduced turbidity
- Absorbance [44]: 0.162
- Absorbance (drug 250 μg/ml, PVP 55,000 0.5% w/w, listed as valdecoxib): reduced turbidity
- Absorbance (drug 250 μg/ml, polymer None): 0.185
